Data from patent publication US20110039762A1, “TARGETED ANTIMICROBIAL MOIETIES” (C3 JIAN, INC., priority 2009, published 2011).
Entries after “also recorded” stand apart in the source; their conditions may differ.

What was measured:
C. jeikeium = assay: Kill or inhibit growth/proliferation; morphology, biofilm and growth disruption (Tables 5, 6); assay type: cell-based, Corynebacterium jeikeium; parameters: key: A: Peptide aggregates; B: Less hyphal formation; Clumps; Diffuse clumps and small polyps; F: Diffuse growth; H: Thin; I: Growth inhibition; Microcolony formation; Rippled; Small polyps; Thick; W: Halo formation on top, microlonies on bottom; also: test concentration or dose not given here
M. luteus = assay: as above; assay type: cell-based, Micrococcus luteus; parameters: key: A: Peptide aggregates; B: Less hyphal formation; Clumps; Diffuse clumps and small polyps; F: Diffuse growth; H: Thin; I: Growth inhibition; Microcolony formation; Rippled; Small polyps; Thick; W: Halo formation on top, microlonies on bottom
MRSA = assay: as above; assay type: cell-based, Methicillin-resistant Staphylococcus aureus; parameters: key: A: Peptide aggregates; B: Less hyphal formation; Clumps; Diffuse clumps and small polyps; F: Diffuse growth; H: Thin; I: Growth inhibition; Microcolony formation; Rippled; Small polyps; Thick; W: Halo formation on top, microlonies on bottom
S. epidermidis = assay: as above; assay type: cell-based, Staphylococcus epidermidis; parameters: key: A: Peptide aggregates; B: Less hyphal formation; Clumps; Diffuse clumps and small polyps; F: Diffuse growth; H: Thin; I: Growth inhibition; Microcolony formation; Rippled; Small polyps; Thick; W: Halo formation on top, microlonies on bottom
microorganisms = assay: Peptides having multiple activities (targeting/binding, antimicrobial, growth or phenotype altering)
Description: In certain embodiments, peptides described herein can have multiple activities. Thus for example, a peptide can have both binding/targeting activity and antimicrobial activity. Such peptides can be used, e.g., in a chimeric construct, for any or all of these properties. Thus, for example, a peptide designated “B” in Table 8 can be used as a targeting peptide. If it is also designated G or M it can also be used for antimicrobial activity.

[1] = system: microorganisms (e.g., bacteria, yeasts, fungi); assay: Targeting peptide binding to target microorganisms (Table 3); conditions: preferably 1x PBS; for Target(s) (microorganisms bound by the targeting peptide): peptide binding in aqueous buffers varied by peptide solubility
E. faecalis = assay: Kill or inhibit growth/proliferation; morphology, biofilm and growth disruption (Tables 5, 6); assay type: cell-based, Enterococcus faecalis; parameters: key: A: Peptide aggregates; B: Less hyphal formation; Clumps; Diffuse clumps and small polyps; F: Diffuse growth; H: Thin; I: Growth inhibition; Microcolony formation; Rippled; Small polyps; Thick; W: Halo formation on top, microlonies on bottom; also: test concentration or dose not given here
S. pneumoniae = assay: as above; assay type: cell-based, Streptococcus pneumoniae; parameters: key: A: Peptide aggregates; B: Less hyphal formation; Clumps; Diffuse clumps and small polyps; F: Diffuse growth; H: Thin; I: Growth inhibition; Microcolony formation; Rippled; Small polyps; Thick; W: Halo formation on top, microlonies on bottom; also: test concentration or dose not given here
E. coli = assay: as above; assay type: cell-based, Escherichia coli; parameters: key: A: Peptide aggregates; B: Less hyphal formation; Clumps; Diffuse clumps and small polyps; F: Diffuse growth; H: Thin; I: Growth inhibition; Microcolony formation; Rippled; Small polyps; Thick; W: Halo formation on top, microlonies on bottom
[2] = microorganism(s) the targeting peptide binds, binding in aqueous buffers depending on peptide solubility
For Organism, effect (morphology, biofilm and growth disruption) in this document: test concentration or dose not given here.
For Organism, effect in this document: test concentration or dose not given here.

Substance | Organism, effect (C. jeikeium) | Organism, effect (M. luteus) | Organism, effect (MRSA) | Organism, effect (S. epidermidis) | Activities (microorganisms) | Organism, effect (E. faecalis) | Organism, effect (S. pneumoniae) | Target(s) (microorganisms bound by the targeting peptide) [1] | also measured
PF-001: peptide having multiple activities (chain 1 MNNWIIVAQLSVTVINEIIDIMKEKQKGGK; chain 2 MNNWIIVAQLSVTVINEIIDIMKEKQKGGK; Peptide with targeting and/or antimicrobial activity) | C. jeikeium (D) | M. luteus (C) | MRSA (R) | S. epidermidis (C) | G B | – | – | – | –
PF-004: peptide having multiple activities (chain 1 ARLSKAIIIAVIVVYHLDVRGLF; chain 2 ARLSKAIIIAVIVVYHLDVRGLF; Peptide with targeting and/or antimicrobial activity) | C. jeikeium (A) | M. luteus (A) | MRSA (R) | S. epidermidis (A) | G B | – | – | – | –
PF-012: peptide having multiple activities (chain 1 WRGPNTEAGGKSANNIVQVGGAPT; chain 2 WRGPNTEAGGKSANNIVQVGGAPT; Peptide with targeting and/or antimicrobial activity) | C. jeikeium (A) | M. luteus (C) | MRSA (R) | S. epidermidis (S) | G B | – | – | – | –
PF-065: peptide having multiple activities (LEKNTRDNYFIHAIDRIYINTSKGLFPESELVAWG; Peptide with targeting and/or antimicrobial activity) | C. jeikeium (A) | – | MRSA (R) | S. epidermidis (D) | G B | – | – | – | Target(s) ([1]; microorganism the targeting peptide binds, binding in aqueous buffers varied by peptide solubility): M. luteus and E. coli and P. aeruginosa and C. albicans and MRSA and S. pneumoniae and C. jeikeium and C. jejuni
PF-139: peptide having multiple activities (ALSKPAIQARTLCRRQDPP; Peptide with targeting and/or antimicrobial activity) | C. jeikeium (R) | M. luteus (C) | – | S. epidermidis (M) | G B | – | – | – | –
PF-176: peptide having multiple activities (RLTSNQFLTRITPFVFAQH; Peptide with targeting and/or antimicrobial activity) | C. jeikeium (D) | M. luteus (C) | – | S. epidermidis (C) | G B | – | – | – | Target(s) [1, 2]: S. epidermidis and M. luteus and P. mirabilis and E. coli and C. albicans and MRSA and E. faecalis and C. jeikeium
PF-191: peptide having multiple activities (QFCNFAWLFLASNNAQVSALA; Peptide with targeting and/or antimicrobial activity) | C. jeikeium (R) | – | MRSA (H) | S. epidermidis (A) | G B | – | – | – | Target(s) [1, 2]: E. coli; also recorded: P. aeruginosa; also recorded: C. jejuni
PF-199 (FPAFSFGAIAGSVSVAR; Peptide with targeting and/or antimicrobial activity) | C. jeikeium (R) | M. luteus (A) | – | S. epidermidis (C) | – | – | – | – | –
PF-546: peptide having multiple activities (chain 1 PIIAPTIKTQIQ; chain 2 PIIAPTIKTQIQ; Peptide with targeting and/or antimicrobial activity) | C. jeikeium (D) | – | MRSA (D) | S. epidermidis (D) | G B | E. faecalis (D) | S. pneumoniae (D) | – | Organism, effect (E. coli): E. coli (R); Target(s) ([1]; microorganism(s) the targeting peptide binds, peptide binding conducted in aqueous buffers varied by peptide solubility): S. epidermidis; also recorded: E. coli; also recorded: C. albicans; also recorded: S. pneumoniae; also recorded: E. faecalis; also recorded: C. jeikeium
PF-622: peptide having multiple activities (TREDVFSVRLINNIVNKQA; Peptide with targeting and/or antimicrobial activity) | C. jeikeium (D) | – | MRSA (D) | S. epidermidis (D) | G B | E. faecalis (D) | S. pneumoniae (M) | S. epidermidis; also recorded: P. aeruginosa; also recorded: C. albicans; also recorded: S. pneumoniae; also recorded: E. faecalis; also recorded: C. jeikeium | –
PF-623: peptide having multiple activities (VLFAVYLGALDWLFSWLTQKM; Peptide with targeting and/or antimicrobial activity) | C. jeikeium (R) | – | MRSA (D) | S. epidermidis (M) | G B | E. faecalis (D) | S. pneumoniae (D) | S. epidermidis and P. aeruginosa and MRSA and S. pneumoniae and E. faecalis and C. jeikeium | –
PF-629: peptide having multiple activities (chain 1 GLAAIATVFALY; chain 2 GLAAIATVFALY; Peptide with targeting and/or antimicrobial activity) | C. jeikeium (R) | – | MRSA (D) | S. epidermidis (C) | G B | E. faecalis (R) | S. pneumoniae (M) | S. epidermidis and P. aeruginosa and C. albicans and MRSA and S. pneumoniae and E. faecalis and C. jeikeium | –
PF-637: peptide having multiple activities (chain 1 SRIKQDARSVRKYDRIGIFFYSFKSA; chain 2 SRIKQDARSVRKYDRIGIFFYSFKSA; Peptide with targeting and/or antimicrobial activity) | C. jeikeium (D) | – | MRSA (M) | S. epidermidis (M) | G B | E. faecalis (D) | S. pneumoniae (M) | S. epidermidis and P. aeruginosa and C. albicans and MRSA and S. pneumoniae and E. faecalis and C. jeikeium | –
PF-657 (chain 1 YVANYTITQFGRDFDDRLAVAIHFA; chain 2 YVANYTITQFGRDFDDRLAVAIHFA; Peptide with targeting and/or antimicrobial activity) | – | – | – | – | – | – | – | Mycobacteria spp | Organism, effect (morphology, biofilm and growth disruption) (C. jeikeium): C. jeikeium (D); Organism, effect (morphology, biofilm and growth disruption) (E. faecalis): E. faecalis (D); Organism, effect (morphology, biofilm and growth disruption) (MRSA): MRSA (D); Organism, effect (morphology, biofilm and growth disruption) (S. epidermidis): S. epidermidis (C); Organism, effect (morphology, biofilm and growth disruption) (S. pneumoniae): S. pneumoniae (H)
PF-681: peptide having multiple activities (chain 1 TALTTVGVSGARLITYCVGVEDI; chain 2 TALTTVGVSGARLITYCVGVEDI; Peptide with targeting and/or antimicrobial activity) | – | – | – | – | G B | – | – | M. smegmatis | Organism, effect (morphology, biofilm and growth disruption) (C. jeikeium): C. jeikeium (R); Organism, effect (morphology, biofilm and growth disruption) (E. faecalis): E. faecalis (R); Organism, effect (morphology, biofilm and growth disruption) (MRSA): MRSA (M); Organism, effect (morphology, biofilm and growth disruption) (S. epidermidis): S. epidermidis (M); Organism, effect (morphology, biofilm and growth disruption) (S. pneumoniae): S. pneumoniae (M)
PF-685 (chain 1 PTLWLACL; chain 2 PTLWLACL; Peptide with targeting and/or antimicrobial activity) | – | – | – | – | – | – | – | Mycobacteria spp | Organism, effect (morphology, biofilm and growth disruption) (C. jeikeium): C. jeikeium (R); Organism, effect (morphology, biofilm and growth disruption) (E. faecalis): E. faecalis (R); Organism, effect (morphology, biofilm and growth disruption) (MRSA): MRSA (M); Organism, effect (morphology, biofilm and growth disruption) (S. epidermidis): S. epidermidis (M); Organism, effect (morphology, biofilm and growth disruption) (S. pneumoniae): S. pneumoniae (M)
